Laboratory results published in ChEMBL document CHEMBL1122965, “The pKa of butaclamol and the mode of butaclamol binding to central dopamine receptors” (J Med Chem, 1985).

Molecular target: Dopamine receptor (Homo sapiens) (UniProt P14416+P35462+P21918+P21917+P21728)

pKa | Structure (SMILES)
7.03 | CC(C)(C)[C@]1(O)CCN2C[C@@H](c3ccccc3)c3ccccc3[C@@H]2C1
9.12 | c1ccc([C@H]2CN3CCC[C@H]3c3ccccc32)cc1
